The experiment has as its system Helicobacter pylori. The experiment is described as follows: H. pylori eradication by 14C UBT test (Example 2). Type of experiment: in vivo. The following applies: BID × 14 day; for UBT results Negative / UBT results Positive: treatment group A: Compound I capsule 400 mg + rabeprazole sodium 20 mg + amoxicillin 1 g. How it is done:
In this example, 80 patients that are positive for Helicobacter pylori infection were admitted to the trial. The 80 patients were randomly allocated to 5 groups at a ratio of 2:2:1:1:2, including 4 treatment groups and 1 control group, and the dosage regimen is shown in Table 4.
Patients were administered with the combination therapy daily according to the dosing regimen of the respective group from day 1 to day 14, and the last dose was administered in the morning of day 15. Pharmacokinetic blood samples were collected at the scheduled time point during the trial and patiented to a safety tolerance assessment and ^14C UBT test. All patients left the hospital after completing the safety tolerance assessment and PK blood collection on the 17th day (day 17), and returned to the research institution for follow-up visits from the 44th to 50th day (day 44-day 50). Follow-up of adverse events and laboratory abnormalities continued until the patients completely recovered or returned to baseline levels or stable states. Safety tolerance assessment, and ^14C UBT tests were performed to assess H. pylori eradication effects.
The administration regimen was as follows: • Group A, Group B and Control Group: • Twice per day, the combination therapy was administered orally within 30 mins after breakfast and dinner, respectively, and the combination therapy was administered for 14 days consecutively. On day 15, the last administration was provided within 30 mins after breakfast. Each patient was administered for 29 times in total. • Group C and Group D: • Three times per day, and two administrations were separated by about 8 hours.
Patients were examined with ^14C UBT test during the screening period (D-14˜D-2), baseline period (D-1), day 8 (D8), day 16 (D16) and days 44˜50 (D44˜D50). The test was done fasting before breakfast to determine the effects of H. pylori eradication in each group.
• Full Analysis Set (FAS): refers to all randomized patients who have been administered with the combination therapy of the present disclosure at least once; • Modified Intentionality Analysis Set (mITT): refers to all randomized patients who underwent a ^14C UBT test on days 28 to 34 after the last administration; • Protocol-compliant Set (PP): refers to patients who have not experienced major protocol violations: randomized and treated with more than 80% (including 80%) of the total amount of the drug expected to be used in the investigation, and who were tested for ^14C UBT on days 28 to 34 after the last administration; • Safety Analysis Set (SS): refers to the patients who have entered the trial and have been administered the combination therapy of the present disclosure at least once; • Pharmacokinetic Concentration Analysis Dataset (PKCS): refers to all enrolled patients who have been administered with the combination therapy of the present disclosure and had at least one PK concentration observation; • Pharmacokinetic Parameter Analysis Dataset (PKPS): Refers to all enrolled patients who have been administered with the combination therapy of the present disclosure and had at least one PK parameter observation data point. Demographic Analysis: • Demographic analysis was based on Full Analysis Set (FAS). Descriptive statistical analysis of all demographics (age, sex, weight, height, BMI, ethnicity, etc.) and baseline characteristics, based on the measurement of the last valid data before the administration of the combination therapy of the present disclosure. Evaluation of the Eradication Effect of Helicobacter pylori: • The eradication effect analysis was performed with the Full Analysis Set (FAS), based on the results of four ^14C UBT tests (negative or positive) in group A, group B, group C, and control groups at baseline, on day 8, day 16, and follow-up days 44 to 50, and three ^14C UBT test results (negative or positive) in group D at baseline, on day 8, and follow-up days 37 to 43. […]

Where [1] appears, read: Day 8 after administration, FAS N = 20.
Setting [2] is: Day 8 after administration, mITT N = 19.
Where [3] appears, read: Day 16 after administration, FAS N = 20.
Setting [4] is: Day 16 after administration, mITT N = 19.
Setting [5] is: Follow up period (Day 44~Day 50), FAS N = 20.
Where [6] appears, read: Follow up period (Day 44~Day 50), mITT N = 19.

On to `CO[C@H]1/C=C/O[C@@]2(C)Oc3c(C)c(O)c4c(c3C2=O)C2=NC3(CCN(CCn5c([N+](=O)[O-])cnc5C)CC3)NC2=C(NC(=O)/C(C)=C\C=C\[C@H](C)[C@H](O)[C@@H](C)[C@@H](O)[C@@H](C)[C@H](OC(C)=O)[C@@H]1C)C4=O` [Compound I, 4-Deoxy-3,4-[2-spiro-[1-[2-(2-methyl-5-nitro-imidazol-1-yl)ethyl]-piperidin-4-yl]]-(1H)-imidazo-(2,5-dihydro)rifamycin], for which the “UBT results Negative” value under setting [1] is recorded as 18 (90.0) n(%); the “UBT results Negative” value under setting [2] is on record as 18 (94.7) n(%); the “UBT results Negative” value under setting [3] is on record as 18 (90.0) n(%); the “UBT results Negative” value under setting [4] is given as 18 (94.7) n(%); the “UBT results Negative” value under setting [5] was 18 (90.0) n(%); the “UBT results Negative” value under setting [6] is reported as 18 (94.7) n(%). Moreover, the “UBT results Positive” value under setting [1] is 1 (5.0) n(%); the “UBT results Positive” value under setting [2] is on record as 1 (5.3) n(%); the “UBT results Positive” value under setting [3] is given as 1 (5.0) n(%); the “UBT results Positive” value under setting [4] was 1 (5.3) n(%); the “UBT results Positive” value under setting [5] is 1 (5.0) n(%); the “UBT results Positive” value under setting [6] was 1 (5.3) n(%). Besides, where the note is “treatment group A: combination therapy of compound I, rabeprazole sodium and amoxicillin”, the “Eradication rate (mITT set) of Helicobacter pylori” value came to 94.7%.
